Results as given in paper PMC9820411, “Late-Stage Functionalization through Click Chemistry Provides GLUT5-Targeting Glycoconjugate as a Potential PET Imaging Probe” (International Journal of Molecular Sciences, 2022).

Target: T1, GLUT5 (Homo sapiens, UniProt P22732)
T1 construct: gene SLC2A5
T1 sequence (P22732 1-501): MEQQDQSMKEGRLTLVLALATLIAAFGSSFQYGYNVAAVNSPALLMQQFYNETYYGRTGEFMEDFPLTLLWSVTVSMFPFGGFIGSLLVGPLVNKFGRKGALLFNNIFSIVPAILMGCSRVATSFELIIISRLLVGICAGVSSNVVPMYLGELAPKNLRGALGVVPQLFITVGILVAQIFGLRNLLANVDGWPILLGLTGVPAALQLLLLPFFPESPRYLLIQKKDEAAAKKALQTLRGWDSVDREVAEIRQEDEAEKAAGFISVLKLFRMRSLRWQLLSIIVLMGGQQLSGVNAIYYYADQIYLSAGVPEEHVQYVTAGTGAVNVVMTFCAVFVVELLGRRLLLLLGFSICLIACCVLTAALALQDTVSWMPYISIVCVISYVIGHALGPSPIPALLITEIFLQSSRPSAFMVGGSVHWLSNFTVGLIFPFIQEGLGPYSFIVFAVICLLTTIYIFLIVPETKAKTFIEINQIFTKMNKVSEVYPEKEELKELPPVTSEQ
Assay: competition with ManCou-F uptake in MCF7 cells
Format: cell-based

## OC[C@H]1OC(O)(CO)[C@@H](O)[C@@H]1O (stereo partly shown) [fructose]
  IC50: ~28 mM
